Some test systems named below: MDA-MB-435; PC-3 prostate; K-562 leukemia; HL-60(TB) leukemia; SF-539 CNS; SW-620 colon; HCT-15 colon; OVCAR-5 ovarian; A549 NSCLC; T-47D breast.
Holding throughout (experiment): NCI anticancer screen, dose series, 48 h

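Following 48 hours of exposure in 96-well plates, responses at five concentrations were used to interpolate endpoints linearly. GI50: concentration for 50% inhibition of growth. Definition used: TGI = concentration required for complete inhibition of growth.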

The text below walks through data of PubChem BioAssay (NCI).

Turning to `CCOC(=O)c1c(-c2ccccc2)[n+](=O)c2cc(Cl)c(Cl)cc2n1[O-]`, the GI50 with MDA-MB-435 is 5.36 µM; with PC-3 prostate it was 0.769 µM; in the experiment on K-562 leukemia it was 3.29 µM; in the experiment with HL-60(TB) leukemia it was 2.68 µM; with SF-539 CNS it was 15.5 µM; in the experiment on SW-620 colon it was 16.5 µM. In addition, the GI50 in the experiment with HCT-15 colon was 6.55 µM; with OVCAR-5 ovarian, 22 µM; with A549 NSCLC, 15.5 µM. Also, the TGI with MDA-MB-435 was 19 µM; with PC-3 prostate it was 62.1 µM; in the experiment with K-562 leukemia it was more than 100 µM; in the experiment with HL-60(TB) leukemia, more than 100 µM; in the experiment with SF-539 CNS, 32 µM; in the experiment with SW-620 colon, 37.1 µM. Further, the TGI in the experiment with HCT-15 colon was determined as 21 µM; with OVCAR-5 ovarian it was 47.7 µM; in the experiment with A549 NSCLC it was 34.4 µM.
For `CSC1=NC(=Nc2c(C)cccc2C)C2(CCC(C(C)(C)C)CC2)N1c1ccc(Cl)cc1` (centres undefined), the GI50 in the experiment on T-47D breast was 20.8 µM; with MDA-MB-435, 30.9 µM; with PC-3 prostate, 6.05 µM; in the experiment with K-562 leukemia, 4.76 µM; with HL-60(TB) leukemia it was 7.94 µM; with SF-539 CNS it was 71.7 µM. The results for the GI50 in the experiment on SW-620 colon, in the experiment on HCT-15 colon and in the experiment on OVCAR-5 ovarian were 27 µM, 7.42 µM and more than 100 µM, respectively. The TGI in the experiment with T-47D breast, in the experiment with MDA-MB-435, in the experiment with PC-3 prostate, in the experiment on K-562 leukemia, in the experiment on HL-60(TB) leukemia and with SF-539 CNS was more than 100 µM in each case. Besides, the TGI in the experiment on SW-620 colon, in the experiment on HCT-15 colon and with OVCAR-5 ovarian was more than 100 µM each time.
`COc1ccc(-c2cc(-c3ccc(Nc4nc(Nc5ccccc5)nc(Nc5ccc(Cl)cc5)n4)cc3)nc(N)n2)cc1`: the GI50 in the experiment with T-47D breast is 6.3 µM; with MDA-MB-435 it was 14.5 µM; in the experiment with K-562 leukemia, 4.63 µM; with HL-60(TB) leukemia, 2.31 µM; in the experiment on SF-539 CNS, 10.3 µM; with SW-620 colon, 13.1 µM. The GI50 in the experiment on HCT-15 colon is 13.5 µM; with OVCAR-5 ovarian, 9.72 µM; in the experiment on A549 NSCLC, 20.5 µM. Besides, the TGI with T-47D breast is 21.7 µM; with MDA-MB-435 it was more than 50 µM; in the experiment on K-562 leukemia it was 16.5 µM; in the experiment on HL-60(TB) leukemia, 17.9 µM; in the experiment on SF-539 CNS it was 25.8 µM; in the experiment on SW-620 colon, 44.9 µM. Also, the TGI is more than 50 µM with HCT-15 colon, 26.3 µM in the experiment with OVCAR-5 ovarian and more than 50 µM in the experiment with A549 NSCLC.
With `COc1cc2oc(-c3cccc(C(=O)Nc4ccc(Cl)cc4)c3)cc(=O)c2c(OC)c1OC`, the GI50 in the experiment on T-47D breast is 1.68 µM; with MDA-MB-435, 3.15 µM; in the experiment on PC-3 prostate it was 3.4 µM; with K-562 leukemia it was 2.77 µM; in the experiment with SF-539 CNS it was 2.56 µM; in the experiment on SW-620 colon, 4.87 µM. In addition, the GI50 in the experiment on HCT-15 colon was 1.61 µM; in the experiment on OVCAR-5 ovarian it was 1.87 µM; with A549 NSCLC, 3.56 µM. The TGI in the experiment on T-47D breast, with MDA-MB-435, with PC-3 prostate, with K-562 leukemia, with SF-539 CNS and in the experiment on SW-620 colon was more than 100 µM each time. Moreover, the TGI with HCT-15 colon, in the experiment with OVCAR-5 ovarian and with A549 NSCLC was more than 100 µM in each case.
For `O=[N+]([O-])c1ccc(C2=Nc3ccccc3S(=O)C(c3ccccc3)C2)cc1` (centres undefined), the TGI stood at 34.5 µM in the experiment on K-562 leukemia; 39.1 µM in the experiment with HL-60(TB) leukemia; 45 µM with SF-539 CNS; 52.8 µM in the experiment with SW-620 colon; 76.2 µM in the experiment on HCT-15 colon; 92.8 µM in the experiment with OVCAR-5 ovarian. Further, in the experiment on A549 NSCLC, the TGI is more than 100 µM.
As to `N#CCCn1[nH]c(=O)c(Cl)c(Cl)c1=O`, the TGI in the experiment on K-562 leukemia is 28.1 µM; in the experiment with HL-60(TB) leukemia, 35.5 µM; with SF-539 CNS, 51.1 µM; with SW-620 colon, 31.8 µM; with HCT-15 colon it was 24.6 µM; in the experiment on OVCAR-5 ovarian it was 32.8 µM. Further, in the experiment on A549 NSCLC, the TGI was determined as 59.4 µM.
Turning to `COc1cc2c(c(OC)c1OC)-c1ccc(NN(C(=O)c3ccccc3)C(=O)c3ccccc3)c(=O)cc1[C@@H](NC(C)=O)CC2` (tested in a mixture with another compound), the GI50 was 4.71 µM in the experiment on T-47D breast; 4.69 µM in the experiment on PC-3 prostate; 4.03 µM in the experiment on K-562 leukemia; 2.1 µM in the experiment on HL-60(TB) leukemia; 3.08 µM with SF-539 CNS; 3.73 µM in the experiment with SW-620 colon. For the same molecule, the GI50 in the experiment on HCT-15 colon was 3.64 µM; in the experiment on OVCAR-5 ovarian, 3.95 µM; with A549 NSCLC, 4.02 µM. The TGI with T-47D breast is 42 µM; in the experiment with PC-3 prostate, more than 100 µM; in the experiment on K-562 leukemia, more than 100 µM; in the experiment with HL-60(TB) leukemia, 14.7 µM; in the experiment with SF-539 CNS, 10.5 µM; in the experiment with SW-620 colon, 15.3 µM. Moreover, the results for the TGI in the experiment with HCT-15 colon, in the experiment on OVCAR-5 ovarian and in the experiment on A549 NSCLC were 14.9 µM, more than 100 µM and more than 100 µM, respectively.
`CCOC(=O)CSc1cc(Cl)c(C)cc1S(=O)(=O)/N=C(/N=C/c1ccc([N+](=O)[O-])s1)NNC`: the GI50 was 12.5 µM in the experiment on T-47D breast; 16.3 µM with MDA-MB-435; 25 µM in the experiment with PC-3 prostate; 21.7 µM with HL-60(TB) leukemia; 31.1 µM in the experiment with SW-620 colon; 18.8 µM in the experiment on HCT-15 colon. For the same molecule, the GI50 with OVCAR-5 ovarian was 6.02 µM; in the experiment with A549 NSCLC, 32.7 µM. Further, the TGI in the experiment with T-47D breast was 40.1 µM; in the experiment with MDA-MB-435, 37.6 µM; in the experiment on PC-3 prostate, more than 100 µM; in the experiment with HL-60(TB) leukemia, 53.7 µM; with SW-620 colon, more than 100 µM; in the experiment with HCT-15 colon, 47.8 µM. Moreover, the TGI with OVCAR-5 ovarian was 38.4 µM; with A549 NSCLC, more than 100 µM.
Turning to `COc1cc([N+](=O)[O-])c(OC)cc1-c1nc2sc(C)c(C)n2c1/C(N)=N/C(=N)N`, the GI50 is more than 100 µM in the experiment on MDA-MB-435; more than 100 µM in the experiment on PC-3 prostate; more than 100 µM in the experiment on HL-60(TB) leukemia; 9.8 µM with SW-620 colon; more than 100 µM with HCT-15 colon; more than 100 µM in the experiment on OVCAR-5 ovarian. Also, the GI50 with A549 NSCLC is more than 100 µM. Moreover, the TGI with MDA-MB-435, in the experiment with PC-3 prostate, in the experiment on HL-60(TB) leukemia, with SW-620 colon, with HCT-15 colon and with OVCAR-5 ovarian was more than 100 µM throughout. Moreover, the TGI with A549 NSCLC is more than 100 µM.
